Results published in the NIST ThermoML archive (doi:10.1021/je5010214).

Conditions: Liquid, Vibrating tube method

CCCCCCC [heptane]
Conditions | mass density [kg/m3]
283.15 K, 101 kPa | 692.398
283.15 K, 267.6 kPa | 692.646
283.15 K, 550.8 kPa | 692.799
283.15 K, 878.6 kPa | 693.177
283.15 K, 991.3 kPa | 693.192
283.15 K, 2020.2 kPa | 694.161
283.15 K, 2914.8 kPa | 694.997
283.15 K, 4946.5 kPa | 696.597
283.15 K, 7034.8 kPa | 698.638
283.15 K, 9021.6 kPa | 700.052
283.15 K, 9991.9 kPa | 700.869
283.15 K, 11959 kPa | 702.48
283.15 K, 15011 kPa | 704.783
283.15 K, 18047 kPa | 706.965
283.15 K, 20045 kPa | 708.637
283.15 K, 22056 kPa | 709.841
283.15 K, 25044 kPa | 712
283.15 K, 28046 kPa | 714.05
283.15 K, 30052 kPa | 715.435
283.15 K, 32055 kPa | 716.688
283.15 K, 32971 kPa | 717.342
283.15 K, 33000 kPa | 717.432
283.15 K, 34016 kPa | 718.012
283.15 K, 34960 kPa | 718.734
283.15 K, 37943 kPa | 720.455
283.15 K, 40004 kPa | 721.755
283.15 K, 42058 kPa | 723.102
283.15 K, 44940 kPa | 724.839
283.15 K, 48022 kPa | 726.526
283.15 K, 49996 kPa | 727.851
283.15 K, 51982 kPa | 728.904
283.15 K, 54965 kPa | 730.736
283.15 K, 57949 kPa | 732.407
283.15 K, 59996 kPa | 733.467
283.15 K, 62025 kPa | 734.345
283.15 K, 64998 kPa | 735.98
283.16 K, 65971 kPa | 736.499
288.15 K, 102 kPa | 688.224
288.15 K, 391.3 kPa | 688.682
288.15 K, 554.4 kPa | 688.232
288.15 K, 882.7 kPa | 689.214
288.15 K, 989.1 kPa | 688.618
288.15 K, 2057.5 kPa | 689.559
288.15 K, 2917.8 kPa | 690.931
288.15 K, 5041.4 kPa | 692.738
288.15 K, 7088.8 kPa | 693.96
288.15 K, 9018.6 kPa | 695.614
288.15 K, 10040 kPa | 696.278
288.15 K, 12072 kPa | 698.584
288.15 K, 15001 kPa | 700.836
288.15 K, 17968 kPa | 703.23
288.15 K, 20068 kPa | 704.758
288.15 K, 22020 kPa | 705.649
288.15 K, 25002 kPa | 707.645
288.15 K, 28026 kPa | 709.735
288.15 K, 30035 kPa | 711.006
288.15 K, 32084 kPa | 712.959
288.15 K, 33050 kPa | 713.818
288.15 K, 33096 kPa | 713.93
288.15 K, 34036 kPa | 714.067
288.15 K, 35077 kPa | 714.575
288.15 K, 37993 kPa | 716.378
288.15 K, 40041 kPa | 717.608
288.15 K, 42023 kPa | 718.735
288.15 K, 44979 kPa | 720.398
288.15 K, 48045 kPa | 723.18
288.15 K, 50068 kPa | 724.245
288.15 K, 52032 kPa | 724.841
288.15 K, 55077 kPa | 726.211
288.15 K, 58004 kPa | 729.214
288.15 K, 59988 kPa | 729.723
288.15 K, 61974 kPa | 731.101
288.15 K, 64942 kPa | 731.745
288.15 K, 66025 kPa | 732.751
293.15 K, 100.5 kPa | 683.714
293.15 K, 825.1 kPa | 684.796
293.15 K, 1971.7 kPa | 685.978
293.15 K, 3060.6 kPa | 686.787
293.15 K, 5011 kPa | 688.859
293.15 K, 9042.1 kPa | 692.394
293.15 K, 10036 kPa | 693.252
293.15 K, 11946 kPa | 694.459
293.15 K, 14941 kPa | 697.266
293.15 K, 21987 kPa | 701.769
293.15 K, 27986 kPa | 706.659
293.15 K, 33150 kPa | 710.401
293.15 K, 33151 kPa | 710.425
293.15 K, 34099 kPa | 710.557
293.15 K, 35000 kPa | 711.53
293.15 K, 40081 kPa | 714.898
293.15 K, 42099 kPa | 716.347
293.15 K, 45068 kPa | 718.234
293.15 K, 54966 kPa | 724.479
293.15 K, 58072 kPa | 726.215
293.15 K, 66045 kPa | 730.5
293.16 K, 305.2 kPa | 684.504
293.16 K, 476.4 kPa | 684.708
293.16 K, 1045.2 kPa | 685.167
293.16 K, 7096.8 kPa | 690.796
293.16 K, 17889 kPa | 698.789
293.16 K, 19992 kPa | 701.345
293.16 K, 24983 kPa | 704.2
293.16 K, 29976 kPa | 708.599
293.16 K, 32232 kPa | 710.098
293.16 K, 38026 kPa | 712.948
293.16 K, 48022 kPa | 720.258
293.16 K, 50084 kPa | 721.322
293.16 K, 52032 kPa | 722.789
293.16 K, 60018 kPa | 727.31
293.16 K, 61962 kPa | 728.261
293.16 K, 64991 kPa | 729.973
298.15 K, 102.3 kPa | 679.807
298.15 K, 305.4 kPa | 680.336
298.15 K, 854.5 kPa | 680.896
298.15 K, 1980.9 kPa | 681.933
298.15 K, 3167.8 kPa | 682.97
298.15 K, 5067.6 kPa | 684.841
298.15 K, 7065.3 kPa | 686.383
298.15 K, 10107 kPa | 689.119
298.15 K, 20128 kPa | 696.696
298.15 K, 22004 kPa | 699.062
298.15 K, 25080 kPa | 701.29
298.15 K, 33113 kPa | 707.026
298.15 K, 33924 kPa | 706.971
298.15 K, 38097 kPa | 709.948
298.15 K, 40161 kPa | 711.975
298.15 K, 42028 kPa | 713.324
298.15 K, 45021 kPa | 715.087
298.15 K, 48107 kPa | 717.001
298.15 K, 50068 kPa | 718.317
298.15 K, 55016 kPa | 721.123
298.15 K, 57931 kPa | 723.027
298.15 K, 59914 kPa | 724.031
298.15 K, 62036 kPa | 725.393
298.15 K, 65018 kPa | 726.954
298.16 K, 493.7 kPa | 680.581
298.16 K, 1012.6 kPa | 680.891
298.16 K, 9120.9 kPa | 688.48
298.16 K, 11970 kPa | 689.977
298.16 K, 15220 kPa | 693.294
298.16 K, 17984 kPa | 694.869
298.16 K, 28040 kPa | 703.578
298.16 K, 30089 kPa | 704.725
298.16 K, 32034 kPa | 706.093
298.16 K, 33093 kPa | 706.936
298.16 K, 35217 kPa | 707.884
298.16 K, 52020 kPa | 719.461
298.16 K, 66118 kPa | 727.501
303.15 K, 100.7 kPa | 675.559
303.15 K, 304.1 kPa | 675.598
303.15 K, 498.9 kPa | 675.77
303.15 K, 900.6 kPa | 675.904
303.15 K, 979.1 kPa | 676.053
303.15 K, 1977.6 kPa | 677.27
303.15 K, 4930.4 kPa | 680.06
303.15 K, 11975 kPa | 686.61
303.15 K, 15044 kPa | 689.15
